Results taken from patent US12656356B2, “Pregabalin immunoassays” (ARK Diagnostics, Inc., priority 2015, dated 2026).
“And” between values parts separate entries of the source, which are not always exact repeats. Equal entries are not always repeated.

Legend:
anti-pregabalin antibody = assay: Specificity of the homogeneous enzyme immunoassay (cross-reactivity); format: binding, rabbit; conditions: compound at 200 μg/mL added to pooled pregabalin-free human urine; Siemens Viva-E System
Description: Antibodies obtained using any of the disclosed techniques are screened or purified not only for their ability to react with pregabalin, but for a low cross-reactivity with potential interfering substances. “Cross-reactivity” may be determined in a quantitative immunoassay by establishing a standard curve using known dilutions of the target analyte, pregabalin. […] The cross-reactivity is the apparent concentration divided by the actual concentration multiplied by 100. […] Furthermore, the cross-reactivity can be determined in the same type of immunoassay in which the antibody will ultimately be used.
An analyzer (instrument) useful to set up the assay is Siemens Viva-E. The Siemens Viva-E® System is an automated biochemistry analyzer used by medical and toxicology laboratories to process biological fluid specimens, such as urine, cerebrospinal fluid, and most commonly, blood. […] The enzyme conjugate activity decreases upon binding to the antibody. The enzyme conjugate, which is not bound to the antibody, catalyzes the oxidation of glucose-6-phosphate. The oxidation of glucose-6-phosphate is coupled with the reduction of NAD^+ to NADH, which can be measured at 340 nm. The change in the absorbance at 340 nm can be measured spectrophotometrically. The pregabalin concentration in a urine specimen can be measured in terms of G6PDH activity. The increase in the rate at 340 nm is due to the formation of NADH and is proportional to the enzyme conjugate activity. An assay curve can be generated using pregabalin spiked into pooled human pregabalin-free urine. The assay rate increases with increasing the concentration of free drug in the sample.
The specificity of the immunoassay was evaluated by adding a compound to pooled pregabalin-free human urine samples fortified with EDTA, and NaN3 preservative and testing the samples and determining the percent cross-reactivity. Separate stock solutions of each compound were prepared in methanol. […] The percentage cross-reactivity was calculated for each compound tested.

antibody #10930 = format: binding, rabbit

Structure (SMILES)	% Crossreactivity (anti-pregabalin antibody) [%]	Reaction Rate (mA/min) Average of Duplicates (antibody #10930)
N[C@@H](Cc1ccc(O)cc1)C(=O)O [L-Tyrosine]	0.004	–
NCC(=O)O [L-Glycine]	0.005	–
CC[C@H](C)[C@H](N)C(=O)O [L-Isoleucine]	0.008	–
O=C(O)[C@@H]1CCCN1 [L-Proline]	0.004	–
CC(C)C[C@H](N)C(=O)O [L-Leucine, L-leucine]	0.038	–
N[C@@H](Cc1ccccc1)C(=O)O [L-Phenylalanine]	0.006	–
CC(C)[C@H](N)C(=O)O [L-Valine]	0.006	–
CSCC[C@H](N)C(=O)O [L-Methionine]	0.031	–
NCCCC[C@H](N)C(=O)O [L-Lysine]	0.001	–
NC(=O)CC[C@H](N)C(=O)O [L-Glutamine]	0.004	–
N=C(N)NCCC[C@H](N)C(=O)O [L-Arginine]	0.006	–
N[C@@H](Cc1c[nH]cn1)C(=O)O [L-Histidine]	0.007	–
N[C@@H](CCC(=O)O)C(=O)O [L-Glutamic Acid]	0.006	–
N[C@@H](Cc1c[nH]c2ccccc12)C(=O)O [L-Tryptophan]	0.006	–
C[C@H](N)C(=O)O [L-Alanine]	0.004	–
N[C@@H](CS)C(=O)O [L-Cysteine]	0.005	–
N[C@@H](CO)C(=O)O [L-Serine]	0.005	–
NC(=O)C[C@H](N)C(=O)O [L-Asparagine]	0.004	–
NCC1(CC(=O)O)CCCCC1 [Gabapentin]	0.019	–
N[C@@H](CC(=O)O)C(=O)O [L-Aspartic Acid]	0.004	–
C[C@@H](O)[C@H](N)C(=O)O [L-Threonine]	0.005	–
CC(C)C[C@H](CN)CC(=O)O [Pregabalin, (S)-3-(aminomethyl)-5-methylhexanoic acid]	–	432.5 mA/min and 344.0 mA/min and 381.5 mA/min and 407.0 mA/min
